Literature values in patent publication US20130273137A1, “DRUG DELIVERY COATING AND DEVICES” (MASSACHUSETTS EYE & EAR INFIRMARY, priority 2010, published 2013).

Tested on: S. aureus
Settings: native MIC

Q: With CN[C@H](CC(C)C)C(=O)N[C@H]1C(=O)N[C@@H](CC(N)=O)C(=O)N[C@H]2C(=O)N[C@H]3C(=O)N[C@H](C(=O)N[C@H](C(=O)O)c4cc(O)cc(O)c4-c4cc3ccc4O)[C@H](O)c3ccc(c(Cl)c3)Oc3cc2cc(c3O[C@@H]2O[C@H](CO)[C@@H](O)[C@H](O)[C@H]2O[C@H]2C[C@](C)(N)[C@H](O)[C@H](C)O2)Oc2ccc(cc2Cl)[C@H]1O [vancomycin] as the molecule, how does the “minimum inhibitory concentration of vancomycin against S. aureus” value read?
A: Its value is 0.5 to 2 µg/mL.
